Values joined by “and” are separate entries in the source; they are usually repeats but may differ in a detail not shown here. Equal values may be shown once.
Test system: blood pressure of cats
Experiment: Reduction of blood pressure of cat
Type: in vivo
Conditions: cats
Method: A spontaneously hypertensive rat (SHR) was anesthetized with 40 mg/ml pentobarbital, and fixed by its back on an experimental stand. The skin at its neck was cut open after removing hair, and thereafter the right common carotid artery was separated with its proximal end being clamped by a artery clamp and its axifugal end being ligated by a thread. A V-shape cut was made with scissors at the axifugal end, into which an arterial cannula filled with heparin physiological saline was inserted. The arterial cannula was connected with a blood pressure transducer, and then the blood pressure transducer was connected to a computer-controlled three-way physiological-pharmacological recorder. The right femoral vein of the rat was separated and intubated for the injection of a drug. When the blood pressure became stable (i.e., the blood pressure contraction curve became straight), the rat was administered by intravenous route.
Five cats of 2.5-3.2 kg were administered orally and intravenously respectively according to the method in Example 8, and then their systolic pressure and diastolic pressure were determined using normal cats non-administered as a control group.

[1] = 5 mg/kg iv, 180 min after administration
[2] = 5 mg/kg iv, 180 min after administration, 5 mg/kg
[3] = 5 mg/kg iv, before administration
[4] = 5 mg/kg iv, before administration, 5 mg/kg
[5] = 10 mg/kg o.s, 10 min after administration
[6] = 10 mg/kg o.s, 10 min after administration, 10 mg/kg
[7] = 10 mg/kg o.s, 20 min after administration
[8] = 10 mg/kg o.s, 20 min after administration, 10 mg/kg
[9] = 10 mg/kg o.s, 30 min after administration
[10] = 10 mg/kg o.s, 30 min after administration, 10 mg/kg
[11] = 10 mg/kg o.s, 40 min after administration
[12] = 10 mg/kg o.s, 40 min after administration, 10 mg/kg
[13] = 10 mg/kg o.s, 50 min after administration
[14] = 10 mg/kg o.s, 50 min after administration, 10 mg/kg
[15] = 10 mg/kg o.s, 60 min after administration
[16] = 10 mg/kg o.s, 60 min after administration, 10 mg/kg
[17] = 10 mg/kg o.s, 90 min after administration
[18] = 10 mg/kg o.s, 90 min after administration, 10 mg/kg
[19] = 10 mg/kg o.s, 120 min after administration
[20] = 10 mg/kg o.s, 120 min after administration, 10 mg/kg
[21] = 10 mg/kg o.s, 150 min after administration
[22] = 10 mg/kg o.s, 150 min after administration, 10 mg/kg
[23] = 10 mg/kg o.s, 180 min after administration
[24] = 10 mg/kg o.s, 180 min after administration, 10 mg/kg
[25] = 10 mg/kg o.s, before administration
[26] = 10 mg/kg o.s, before administration, 10 mg/kg

CC1(C)CNCC(C)(C)C1=O [Compound of formula II, 3,3,5,5-tetramethyl-4-piperidone]
Systolic pressure, Animal 1-4 individually (5 mg/kg iv, 150 min after administration, 5 mg/kg): 186 mmHg and 170 mmHg and 202 mmHg and 150 mmHg | Average Diastolic pressure [1]: 133.75 mmHg | Average Systolic pressure [1]: 185 mmHg | Diastolic pressure, Animal 1-4 individually [2]: 123 mmHg and 148 mmHg and 156 mmHg and 108 mmHg | Systolic pressure, Animal 1-4 individually [2]: 187 mmHg and 176 mmHg and 212 mmHg and 165 mmHg | Average Diastolic pressure [3]: 146.25 mmHg | Average Systolic pressure [3]: 199.5 mmHg | Diastolic pressure, Animal 1-4 individually [4]: 169 mmHg and 138 mmHg and 163 mmHg and 115 mmHg | Systolic pressure, Animal 1-4 individually [4]: 226 mmHg and 183 mmHg and 211 mmHg and 178 mmHg | Average Diastolic pressure [5]: 119 mmHg | Average Systolic pressure [5]: 166.25 mmHg | Diastolic pressure, individual animals [6]: 143 mmHg and 145 mmHg and 112 mmHg and 76 mmHg | Systolic pressure, Animal 1-4 individually [6]: 190 mmHg and 180 mmHg and 159 mmHg and 136 mmHg | Average Diastolic pressure [7]: 107.25 mmHg | Average Systolic pressure [7]: 153 mmHg | Diastolic pressure, individual animals [8]: 130 mmHg and 136 mmHg and 91 mmHg and 72 mmHg | Systolic pressure, Animal 1-4 individually [8]: 170 mmHg and 181 mmHg and 138 mmHg and 123 mmHg | Average Diastolic pressure [9]: 96 mmHg | Average Systolic pressure [9]: 140.5 mmHg | Diastolic pressure, individual animals [10]: 110 mmHg and 108 mmHg and 91 mmHg and 75 mmHg | Systolic pressure, Animal 1-4 individually [10]: 154 mmHg and 140 mmHg and 138 mmHg and 130 mmHg | Average Diastolic pressure [11]: 95.25 mmHg | Average Systolic pressure [11]: 140.5 mmHg | Diastolic pressure, individual animals [12]: 107 mmHg and 100 mmHg and 95 mmHg and 79 mmHg | Systolic pressure, Animal 1-4 individually [12]: 146 mmHg and 133 mmHg and 143 mmHg and 140 mmHg | Average Diastolic pressure [13]: 101 mmHg | Average Systolic pressure [13]: 144.25 mmHg | Diastolic pressure, individual animals [14]: 110 mmHg and 116 mmHg and 95 mmHg and 83 mmHg | Systolic pressure, Animal 1-4 individually [14]: 149 mmHg and 140 mmHg and 144 mmHg (2×) | Average Diastolic pressure [15]: 103 mmHg | Average Systolic pressure [15]: 144 mmHg | Diastolic pressure, individual animals [16]: 110 mmHg and 117 mmHg and 102 mmHg and 83 mmHg | Systolic pressure, Animal 1-4 individually [16]: 149 mmHg and 153 mmHg and 130 mmHg and 144 mmHg | Average Diastolic pressure [17]: 103.75 mmHg | Average Systolic pressure [17]: 157 mmHg | Diastolic pressure, individual animals [18]: 102 mmHg and 120 mmHg and 97 mmHg and 96 mmHg | Systolic pressure, Animal 1-4 individually [18]: 154 mmHg (2×) and 180 mmHg and 140 mmHg | Average Diastolic pressure [19]: 108.25 mmHg | Average Systolic pressure [19]: 165 mmHg | Diastolic pressure, individual animals [20]: 93 mmHg and 154 mmHg and 96 mmHg and 90 mmHg | Systolic pressure, Animal 1-4 individually [20]: 146 mmHg and 195 mmHg and 163 mmHg and 156 mmHg | Average Diastolic pressure [21]: 111.75 mmHg | Average Systolic pressure [21]: 169.25 mmHg | Diastolic pressure, individual animals [22]: 93 mmHg and 161 mmHg and 109 mmHg and 84 mmHg | Systolic pressure, Animal 1-4 individually [22]: 146 mmHg and 206 mmHg and 168 mmHg and 157 mmHg | Average Diastolic pressure [23]: 117.5 mmHg | Average Systolic pressure [23]: 176.25 mmHg | Diastolic pressure, individual animals [24]: 107 mmHg and 164 mmHg and 112 mmHg and 87 mmHg | Systolic pressure, Animal 1-4 individually [24]: 158 mmHg and 213 mmHg and 170 mmHg and 164 mmHg | Average Systolic pressure (10 mg/kg o.s, 210 min after administration): 176.5 mmHg | Systolic pressure, Animal 1-4 individually (10 mg/kg o.s, 210 min after administration, 10 mg/kg): 159 mmHg and 213 mmHg and 170 mmHg and 164 mmHg | Average Systolic pressure (10 mg/kg o.s, 240 min after administration): 182.75 mmHg | Systolic pressure, Animal 1-4 individually (10 mg/kg o.s, 240 min after administration, 10 mg/kg): 178 mmHg and 213 mmHg and 176 mmHg and 164 mmHg | Average Diastolic pressure [25]: 147.5 mmHg | Average Systolic pressure [25]: 202.5 mmHg | Diastolic pressure, individual animals [26]: 143 mmHg and 165 mmHg and 145 mmHg and 137 mmHg | Systolic pressure, Animal 1-4 individually [26]: 191 mmHg and 215 mmHg and 196 mmHg and 208 mmHg
